Common to all, as to assay type: cell-based
Assay [1] relates to Staphylococcus aureus ATCC 29213. Put plainly: Antibacterial broth dilution assay against S. aureus (modified CLSI). Particulars: for S. aureus IC50 / IC50: in vitro; for IC50: converted with molecular weight; for X more potent than ciprofloxacen: molar IC50 ratio versus ciprofloxacen. Put shortly: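 Modified CLSI broth microdilution with OD monitoring before and after incubation at 35 °C: Candida in RPMI 1640/MOPS pH 6.0, 1.5×10^3 CFU/ml, 46-50 h; Staphylococcus in cation-adjusted Mueller-Hinton pH 7.3, 5.0×10^5 CFU/ml, 16-20 h. IC50 from curve fit; MIC is the lowest concentration with no growth; MFC/MBC from subculture.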

Assay [2] relates to Plasmodium falciparum W2 clone (Indochina, chloroquine-resistant). The experiment in a line: In vitro antimalarial assay, chloroquine-resistant W2 clone. Particulars: W2 clone; for IC50: converted with molecular weight, read-out: P. falciparum W2 IC50; for X more potent than chloroquine: molar IC50 ratio versus chloroquine. Put shortly: (§1)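 Parasites grown in type A human RBCs; assay run on infected cell suspension at 2% parasitemia and 2% hematocrit, in duplicate at several concentrations. IC50 taken from dose curves, per the Makler method, with DMSO as vehicle; Vero cytotoxicity run in parallel to derive a selectivity index.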

Assay [3] has as its system Plasmodium falciparum D6 clone (Sierra Leon, chloroquine-sensitive). The experiment in a line: In vitro antimalarial assay, chloroquine-sensitive D6 clone. Particulars: D6 clone; for IC50: converted with molecular weight, read-out: P. falciparum D6 IC50; for X more potent than chloroquine: molar IC50 ratio versus chloroquine. The gist of the method:
as §1

Assay [4] has as its system S. mansoni newly transformed schistosomula (NTS). Put plainly: In vitro testing on Schistosoma mansoni newly transformed schistosomula (NTS), viability score. To be noted: NTS S. mansoni, 33 μM, 72 h. Put shortly:
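Mechanically transformed S. mansoni (Liberian strain) NTS, cultured overnight, exposed at 100 per well to compound (from 10 mM DMSO stock; ≤1% DMSO controls) at 37 °C, 5% CO2 for 72 h. Viability scored microscopically from 3 (normal activity, intact tegument) to 0 (dead, granulated).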

SMILES strings stand for the structures.

Take `CC(=O)[O-].F[P-](F)(F)(F)(F)F.[Ni+2].c1ccc(CN2CCCN3CCCN(CCCN(Cc4ccccc4)CC3)CC2)cc1` [DJD22, [Ni(Bn2PBCyclam)(OAc)]PF6]: in assay [1], the “S. aureus IC50” value was 4.630 µg/mL, half-maximal inhibition (IC50) required 6.78 µM and the “X more potent than ciprofloxacen” value is 0.04. In addition, in assay [2], the “P. falciparum W2 IC50” value was 0.9060 µg/mL, the IC50 was 1.33 µM and the “X more potent than chloroquine” value is given as 0.51. Moreover, in assay [3], the “P. falciparum D6 IC50” value was found to be 0.7074 µg/mL, the concentration for half-maximal inhibition (IC50) worked out at 1.03 µM and the “X more potent than chloroquine” value is given as 0.04.

Regarding `[Cl][Mn-2]([Cl])([Cl])[Cl].[Mn+2].c1ccc(CN2CCCN3CCCN(CCCN(Cc4ccccc4)CC3)CC2)cc1` [BME08, [Mn(Bn2PBCyclam)][MnCl4]], in assay [1], the “S. aureus IC50” value was found to be 0.800 µg/mL; the midpoint of inhibition, the IC50, lay at 1.19 µM; the “X more potent than ciprofloxacen” value was 0.23. In addition, in assay [2], the “P. falciparum W2 IC50” value worked out at 0.1206 µg/mL, the concentration for half-maximal inhibition (IC50) is 0.179 µM and the “X more potent than chloroquine” value was 3.78. In assay [3], the “P. falciparum D6 IC50” value was determined as 0.0967 µg/mL, the IC50 came out at 0.144 µM and the “X more potent than chloroquine” value stood at 0.25.

Consider `CN1CCCN2CCN(CCCN(Cc3cccc(CN4CCCN5CCN(C)CCCN(CC5)CC4)c3)CC2)CC1.Cl.Cl.Cl.Cl.Cl.Cl.Cl.Cl` [TJS04, m-CB-cyclams HCl salt], for which, in assay [1], the “S. aureus IC50” value stood at 9.280 µg/mL and the “X more potent than ciprofloxacen” value turned out to be 0.03. Also, in assay [1] (HCl salt), the concentration for half-maximal inhibition (IC50) was found to be 9.53 µM. Moreover, the “Effect at 72 h (%)” value in assay [4] stood at 24.32%. Further, in assay [2], the “P. falciparum W2 IC50” value worked out at 0.6558 µg/mL, the concentration for half-maximal inhibition (IC50) was found to be 0.75 µM and the “X more potent than chloroquine” value was determined as 0.90. In assay [3], the “P. falciparum D6 IC50” value came to 0.7450 µg/mL, the IC50 amounted to 0.852 µM and the “X more potent than chloroquine” value came out at 0.04.

On to `c1ccc(CN2CCN3CCCN(CC2)CCN(Cc2ccccc2)CC3)cc1` [AW009, Bn2PBCyclen], for which, in assay [1], the “S. aureus IC50” value came out at 2.010 µg/mL, the half-maximal inhibitory concentration (IC50) came to 5.12 µM and the “X more potent than ciprofloxacen” value is listed as 0.05. Besides, in assay [2], the “P. falciparum W2 IC50” value was determined as 1.5560 µg/mL, the 50% inhibitory concentration (IC50) is 3.96 µM and the “X more potent than chloroquine” value was 0.17. Besides, in assay [3], the “P. falciparum D6 IC50” value was 1.0770 µg/mL, the IC50 was 2.74 µM and the “X more potent than chloroquine” value is 0.01.

As to `c1cc(CN2CCCN3CCCN(CCCNCC3)CC2)ccc1CN1CCCN2CCCN(CCCNCC2)CC1` [SLK10, p-H2PBCyclams], in assay [1], the “S. aureus IC50” value worked out at 1.410 µg/mL, it took 2.42 µM to reach half-maximal inhibition (IC50) and the “X more potent than ciprofloxacen” value amounted to 0.11. Moreover, in assay [2], the “P. falciparum W2 IC50” value came to 1.7920 µg/mL, the IC50 worked out at 3.07 µM and the “X more potent than chloroquine” value worked out at 0.22. Further, in assay [3], the “P. falciparum D6 IC50” value amounted to 0.8657 µg/mL, the IC50 came to 1.49 µM and the “X more potent than chloroquine” value is given as 0.02.

The values above are taken from patent publication US12139481B2, “Compositions comprising macrocycle derivatives incorporating bridged macrocycles and methods of producing and using same” (Southwestern Oklahoma State University, priority 2015, dated 2024).
